This is an account of results in patent US10155047B2, “Polymers having therapeutically active agents conjugated thereto, processes of preparing same and uses thereof” (Ramot at Tel-Aviv University Ltd., priority 2012, dated 2018).

One data set deals with HUVECs. Put plainly: Capillary-like tube formation assay of HUVECs. Type of data set: cell-based, human. Particulars: PTX-equivalent concentrations of 80 nM. How it is done:
The surface of 24-well plates is coated with Cultrex® basement membrane (50 μl/well; 10 mg/ml) on ice and then allowed to polymerize at 37° C. for 30 minutes. HUVECs (3×10^4) are seeded on coated plates in the presence of conditioned media of tumor cells treated with the conjugate and its controls. After 8 hours of incubation (37° C.; 5% CO2), wells are imaged using bright-field technique (Nikon TE2000E inverted microscope integrated with Nikon DS5 cooled CCD camera by 4× objective).
The effect of the PGA-PTX-DOX conjugate (Route 1, see, FIG. 18) on capillary-like tube formation of HUVECs was tested and compared to that of the free drugs, each alone and in combination, to that of PGA alone and to that of a PGA-PTX conjugate.
The effect of PGA, free PTX (80 nM), free C3, the conjugate PGA-C3, and the conjugates PGA-PTX and PGA-PTX-C3, at PTX-equivalent concentrations of 80 nM, on capillary-like tube formation of human umbilical vein endothelial cells (HUVEC) was evaluated, in order to confirm that anti-angiogenic properties of PTX are maintained after conjugation.

Data set [1] can be described thus: Zeta potential of conjugates. Type of data set: physicochemical. The settings on record: Table 13.
Data set [2] in a line: Conjugate size by DLS analysis. Format: physicochemical. The settings on record: estimated from DLS analysis. The text has this: Based on DLS analysis, it is estimated that the conjugate is 10 nm in size, which is a suitable size for selective distribution by the EPR effect.
The subject of the next data set is ES-2 cells. Put plainly: ES-2 proliferation after 7 minutes treatment, wash and 72 hours in medium. Particulars: wash. Type of data set: cell-based, human. How it is done: The effect of PGA, free PTX and the conjugates PGA-PTX, PGA-C3, and PGA-PTX-C3 on proliferation of ES-2 cells was evaluated after incubation of the cells with each treatment for 7 minutes, washing the cells and incubation in medium for 72 hours.
Short incubation time was selected since in the usual 72-hour incubation time, both the targeted and non-targeted conjugates would have had sufficient time to internalize into the cells. Under these experiment conditions, only the targeted conjugate remained bound to the cells, while non-targeted polymers or conjugates washed off, resulting in lower efficacy.

Ends that are not written are not given here.

“PGA-C3-PTX: PGA having attached C3 NCAM targeting peptide (SEQ ID NO:3) and PTX (GASKKPKRNIKA; also: conjugated to polyglutamic acid (PGA) and paclitaxel, site not given here)”: the “inhibition of capillary-like tube formation” value with HUVECs is listed as “inhibited the formation of capillary-like tubes”. For the same substance, the Zeta potential in data set [1] is given as −27.3 mV. Also, the “size of the conjugate” value in data set [2] is recorded as 10 nm. In addition, in the data set with ES-2 cells, the inhibition of proliferation entry is recorded as “inhibited the proliferation of ES-2 cells more than non-targeted PGA-PTX”.
